According to patent US8241863B2, “Identification of an evolutionarily conserved pathway mediating transrepression of inflammatory response genes by nuclear receptors” (The Regents of the University of California, priority 2005, dated 2012):
Entries after “also recorded” stand apart in the source; their conditions may differ.

Legend:
iNOS gene [1] = assay: iNOS expression in LPS-treated primary peritoneal macrophages by real-time PCR, LXR ligands; format: cell-based, mouse; details: for repression of iNOS activation: oxysterols 5 μM, LPS, 6 h, less potently than GW3965 1 μM where active (FIG. 14 upper)
Description: Thioglycollate-elicited macrophages were isolated by peritoneal lavage 3 days following peritoneal injection of 2.5 ml 3% thioglycollate (DIFCO). Cells were plated in RPMI medium 1640 and 10% fetal bovine serum. After 5 h the medium was removed and cells were fed with fresh medium. For RNAi experiments, smart-pool siRNAs (Dharmacon) against NCoR and Ubc9 were transfected into primary macrophages using lipofectamine 2000 (Invitrogen), incubated for 48 h and validated by Q-PCR and Western Blotting. LPS (Sigma) was used at a concentration of 1 μg/ml and GW3965 (obtained under MTA from GlaxoSmithKline) was used at a concentration of 1 μM.
Total RNA (isolated by RNeasy kit, Qiagen) was prepared from primary macrophages pretreated with 1 μM GW3965 (2 h) before 1 μg/ml LPS stimulation (6 h). One microgram of total RNA was used for CDNA synthesis, and 1 μl of cDNA was used for real time PCR using iNOS or inflammatory-gene-specific primers.
(§1) Macrophages were transfected with siRNA for 48 h and then stimulated with LPS ([…]) for 6 h in the absence or presence of LXR ligand (GW3965, 1 μM). iNOS expression in peritoneal macrophages was evaluated by real-time quantitative PCR and iNOS promoter activation in RAW264.7 was evaluated by luciferase assay. […] Primary macrophages were treated with LPS ([…]) with or without the LXR ligand (GW3965, 1 μM) for 1 h.
(§2) Primary mouse peritoneal macrophages were treated in the upper panel with LPS and the indicated ligands and harvested for real time PCR analysis of iNOS expression 6 h later. In the lower panel, cells were treated with the indicated ligands for 18 hours and harvest for real time PCR analysis of ABCA1 expression. GW3965 was used at a concentration of 1 μM. The oxysterols were used at a concentration of 5 μM.

ABCA1 gene = assay: ABCA1 expression in primary macrophages by real-time PCR; format: cell-based, mouse; details: oxysterols 5 μM, 18 hours; less potently than GW3965 1 μM for the first three (FIG. 14 lower)
Description: as §2

iNOS promoter [2] = assay: Chromatin immunoprecipitation on the iNOS promoter in primary macrophages or RAW 264.7 cells; format: cell-based, mouse; details: primary macrophages, ligand 1 h then LPS 1 h (FIG. 1e)
Description: 2-4×10^6 primary macrophages or RAW 264.7 cells were used per experimental point. Cells were pre-treated with 1 μM Ro (1 h) and stimulated with 1 μg/ml LPS (1 h). Cross-linking was carried out for 10 min with 1% formaldehyde and cells lysed with 1% SDS, 10 mM EDTA, 50 mM Tris-HCl pH 8.1 and sonicated 10 sec-5 times. Five μg antibody conjugated to sheep anti-rabbit dyna-beads (Dyna1) were used for immunoprecipitations. For PPARγ, 2 μg of H-100 plus 3 μg of PPARγ antibody from Geneka were used in combination. Alternatively, anti-HA protein A sepharose beads (Covance) were used for wild-type and mutant HA-tagged PPARγ proteins. HDAC3 and p65 antibodies were from SantaCruz. NCoR antibody was from Affinity Bioreagents, Inc. Beads were washed twice with wash buffer: 150 mM NaCl, 0.1% SDS, 1% Triton X-100, 2 mM EDTA, 20 mM Tris-HCl and subsequently with buffer: 0.25 M LiCl, 1% NP-40, 1% deoxycholate, 1 mM EDTA, 10 mM Tris-HCl. Beads were eluted in 300 μl of TE with 1% SDS and 0.1 M NaCO3. Elute samples and 10% inputs were reversed at 65° C. for a minimum of 6 h. […]
In FIG. 1e, primary macrophages were pretreated with Ro or GW0072 for 1 h followed by 1 h LPS induction and formaldehyde crosslinking. A 150 base pair region of the iNOS promoter spanning the most proximal NF-κB site to the start of transcription was analyzed by ChIP assays using the indicated antibodies.

PPARγ [3] = target: T1, PPARγ (Homo sapiens, UniProt P37231); details: cited from earlier work
T1 sequence (P37231 1-505): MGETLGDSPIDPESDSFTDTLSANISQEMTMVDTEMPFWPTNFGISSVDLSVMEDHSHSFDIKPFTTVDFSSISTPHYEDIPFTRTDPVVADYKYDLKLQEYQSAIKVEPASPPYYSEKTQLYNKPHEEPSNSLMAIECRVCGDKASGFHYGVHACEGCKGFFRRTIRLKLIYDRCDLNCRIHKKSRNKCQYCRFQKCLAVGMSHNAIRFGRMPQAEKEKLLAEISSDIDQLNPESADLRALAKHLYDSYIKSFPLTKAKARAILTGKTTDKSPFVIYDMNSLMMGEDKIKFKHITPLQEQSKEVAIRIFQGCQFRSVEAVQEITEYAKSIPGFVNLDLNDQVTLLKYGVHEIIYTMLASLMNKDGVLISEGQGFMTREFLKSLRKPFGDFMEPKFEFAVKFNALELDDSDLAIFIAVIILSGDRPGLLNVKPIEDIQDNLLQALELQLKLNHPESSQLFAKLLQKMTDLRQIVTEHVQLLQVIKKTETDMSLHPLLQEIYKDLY

iNOS gene [4] = assay: iNOS mRNA in LPS-stimulated primary macrophages (Northern blot / semi-quantitative RT-PCR), PPARγ ligands; format: cell-based, mouse; details: as little as 10 nM Trichostatin A 1 h, then 1 μM Ro 2 h, LPS 6 h (FIG. 1c)
Description: Primary macrophages were elicited by intra-peritoneal injection with 2 ml of thioglycollate. […] For RNAi experiments, smart-pool siRNAs (Dharmacon) against PIAS1, Ubc9, HDAC3, HDAC7 or control non-specific and previously validated NCoR were transected using lipofectamine 2000 (Invitrogen) into primary macrophages and incubated for 48 h.
Total RNA (Trizol method) was prepared from thioglycollate-elicited primary macrophages pre-treated with 1 μM Ro (2 h) prior to 1 μg/ml LPS stimulation (6 h). One μg of total RNA was used for cDNA synthesis using the First-strand synthesis RT system (Invitrogen). Two μl of cDNA was used for PCR using iNOS or inflammatory gene specific primers amplifying a 0.7 kb region of cDNA. GAPDH cDNA samples were carried out for 22 to 25 cycles. […]
Total RNA was analyzed for iNOS and GAPDH mRNA by Northern Blotting. […] Cells were stimulated with LPS for 6 h and total RNA was analyzed as in FIG. 1a. […] A 150 base pair region of the iNOS promoter spanning the most proximal NF-κB site to the start of transcription was analyzed by ChIP assays using the indicated antibodies. […]
In FIG. 2a, CHIP analysis of NCoR and Ubc5 occupancy on the iNOS promoter was performed in primary macrophages stimulated with LPS for the indicated times in the presence or absence of Ro. In FIG. 2b, Semi-quantitative RT-PCR analysis of iNOS and GAPDH mRNA in primary macrophages. […]

iNOS promoter [5] = assay: iNOS-luciferase reporter transrepression in RAW264.7 cells transfected with PPARγ; format: cell-based, mouse
Description: For transrepression experiments, wild-type PPARγ or PPARγ mutants were transfected at a 3:1 ratio to reporter plasmids using Superfect reagent (Qiagen). […] Transfection experiments evaluated each experimental condition in triplicate and results were expressed as mean +/− standard deviation. Each transfection experiment was independently repeated at least three times. Statistical analysis was preformed using Student's t-test with P<0.01 considered statistically significant.
In FIG. 1b, RAW264.7 cells were transfected with the indicated siRNAs and PPARγ expression and iNOS-luciferase reporter plasmids. Cells were treated with LPS and/or Ro as in panel a prior to assay of luciferase activity. […] In FIG. 1d, RAW264.7 cells were transfected with the indicated siRNAs and PPARγ expression and iNOS-luciferase reporter plasmids. Cells were treated with LPS and/or Ro as in FIG. 1a, prior to assay of luciferase activity. […] In FIG. 1f, RAW264.7 cells were transfected with the indicated siRNAs and PPARγ expression and iNOS-luciferase reporter plasmids and stimulated with LPS for 6 h prior to assay of luciferase activity.
In FIG. 4a, RAW264.7 cells were transfected with the iNOS reporter, PPARγ expression plasmid and Ubc9-siRNA. 36 h post-transfection cells were pretreated with Ro for 1 h and LPS for 6 h prior to assay of luciferase activity. […]

PPARγ [6] = target: T2, PPARγ (Mus musculus, UniProt P37238); assay: Transactivation assay on positively regulated PPARγ-dependent promoter (Aox-TK luciferase) in RAW264.7 cells; format: cell-based
T2 construct: expressed in transfected cells; host or cells: RAW264.7 mouse macrophage cell line
T2 sequence (P37238 1-475 isoform P37238-2): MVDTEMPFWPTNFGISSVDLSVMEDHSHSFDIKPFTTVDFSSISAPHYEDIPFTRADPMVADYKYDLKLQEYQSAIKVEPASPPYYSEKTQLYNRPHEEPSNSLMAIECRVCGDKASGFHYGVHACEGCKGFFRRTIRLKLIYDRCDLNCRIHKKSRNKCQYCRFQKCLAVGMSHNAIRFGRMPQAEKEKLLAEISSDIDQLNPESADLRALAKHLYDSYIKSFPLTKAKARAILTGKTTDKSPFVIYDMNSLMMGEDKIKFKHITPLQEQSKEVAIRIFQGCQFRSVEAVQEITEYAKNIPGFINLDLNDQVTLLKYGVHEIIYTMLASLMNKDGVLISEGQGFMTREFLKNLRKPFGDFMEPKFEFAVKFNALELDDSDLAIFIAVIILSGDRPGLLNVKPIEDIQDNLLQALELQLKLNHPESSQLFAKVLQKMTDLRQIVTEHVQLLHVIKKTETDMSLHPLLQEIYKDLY
Description: The RAW264.7 mouse macrophage cell line was transiently transfected with plasmids containing the iNOS or Aox-TK promoters directing luciferase expression as previously described 22. For transrepression experiments, wild-type PPARγ or PPARγ mutants were transfected at a 3:1 ratio to reporter plasmids using Superfect reagent (Qiagen). For siRNA experiments, RAW264.7 cells were transfected with siRNAs (40 nM) using Superfect reagent for 48 h prior to activation with PPARγ ligands and LPS induction. […] Transfection experiments evaluated each experimental condition in triplicate and results were expressed as mean +/− standard deviation. Each transfection experiment was independently repeated at least three times. Statistical analysis was preformed using Student's t-test with P<0.01 considered statistically significant.
In FIG. 5b, in vivo detection of SUMOylation of PPARγ was performed in HeLa cells transfected with myc-tagged Sumo1 and HA-tagged WT-PPARγ or PPARγ^K365R. Cells were immunoprecipitated for HA tag and blotted for myc tag. NT refers to non-transfected cells. In FIG. 5c, RAW264.7 cells were transfected with wild-type (WT) and mutant HA-PPARγ and Flag(FL)-tagged PIAS1 expression plasmids and treated with Ro for 0, 10, 30 or 60 min. Whole cell extracts were immunoprecipitated for HA tag followed by western blotting for FL-PIAS1. […]

iNOS promoter [7] = assay: iNOS-luciferase reporter in RAW264.7 cells transfected with LXRα; format: cell-based, mouse; details: RAW264.7, LXRα
Description: The RAW264.7 mouse macrophage cell line was transiently transfected with iNOS or ABCA1 promoters directing luciferase expression, pCMXhLYRα, FLAGhLXRβ, and their mutants. For transrepression experiments, wildtype LXRα and LXRβ or LXR mutants were transfected at a 3:1 (LXR to reporter plasmid) ratio using Superfect reagent (Qiagen). For siRNA experiments, RAW264.7 cells were transfected with siRNAs (40 nM) using Superfect reagent for 48 h before activation with LXR ligands and LPS induction. […]
Macrophages were transfected with siRNA for 48 h and then stimulated with LPS ([…]) for 6 h in the absence or presence of LXR ligand (GW3965, 1 μM). iNOS expression in peritoneal macrophages was evaluated by real-time quantitative PCR and iNOS promoter activation in RAW264.7 was evaluated by luciferase assay. […]

iNOS promoter [8] = assay: ChIP for LXR and NCoR on the iNOS promoter in primary macrophages, LXR ligand; format: cell-based, mouse
Description: For each experimental condition, 20×10^6 primary macrophages were used. Cells were pre-treated with 1 μM GW3965 (1 h) and stimulated with 1 μg/ml LPS (1 h) before crosslinking for 10 min with 1% formaldehyde. Crosslinked adducts were resuspended and sonicated resulting in DNA fragments of 300-900 bp. Anti-LXR (Calbiochem) or anti-NCoR (Affinity Bioreagents) antibodies were used. Protein-bound, immunoprecipitated DNA was reverse cross-linked at 65° C. overnight and then purified using PCR purification Kit (Qiagen). A 150-bp region of the iNOS promoter was amplified by real time PCR spanning the most proximal NF-κB site to the start of transcription.
as §1

[9] = tested on: Ccl3, Ccl7, Cxcl10 and Tgtp; assay: Microarray analysis of primary macrophages treated with LPS with or without PPARγ agonist; format: cell-based, mouse; details: LPS (FIG. 2e)
Description: In FIG. 2a, CHIP analysis of NCoR and Ubc5 occupancy on the iNOS promoter was performed in primary macrophages stimulated with LPS for the indicated times in the presence or absence of Ro. In FIG. 2b, Semi-quantitative RT-PCR analysis of iNOS and GAPDH mRNA in primary macrophages. Cells were treated with Ro 1 h before (pre) or 1 h following (post) stimulation with LPS. RNA was isolated for analysis 6 h after LPS treatment. In FIG. 2c, ChIP analysis for p65 and PPARγ on iNOS and CD36 promoters in primary macrophages was performed as described in FIG. 2a. In FIG. 2d, ChIP analysis of the iNOS promoter for NCoR and PPARγ was carried out in primary macrophages 1 h following LPS stimulation. Ro was given 1 h before (pre) or 1 h after (post) stimulation. Cells were transfected with control or NCoR-specific siRNAs 48 h prior to LPS stimulation. In FIG. 2e, Expression data derived from microarray analysis of primary macrophages treated with LPS in the presence or absence of the PPARγ-specific agonist GW7845. In FIG. 2f, ChIP analysis for NCoR and PPARγ on the indicated promoters was carried out using primary macrophages as in 2d.

C[C@H](CC[C@@H]1OC1(C)C)[C@H]1CC[C@H]2[C@@H]3CC=C4C[C@@H](O)CC[C@]4(C)[C@H]3CC[C@]12C [24(S), 25-epoxycholesterol]
repression of iNOS activation (iNOS gene [1]): repress iNOS activation | induction of ABCA1 expression (ABCA1 gene): induce ABCA1 expression

CCCCCCCC1SC(CC(=O)N(Cc2ccccc2)Cc2ccccc2)C(=O)N1CCCCc1ccc(C(=O)O)cc1 (centres unmarked) [GW0072]
NCoR and HDAC3 occupancy of iNOS promoter after LPS stimulation (iNOS promoter [2]): both NCoR and HDAC3 remained on the iNOS promoter | dissociation of NCoR from PPARγ (PPARγ [3]): effective at dissociating NCoR from PPARγ; also recorded: disrupts direct interactions between NCoR and PPARγ | stimulation of interactions with nuclear receptor coactivators (PPARγ [3]): only weakly stimulates

CC(C)C(O)CC[C@@H](C)[C@H]1CC[C@H]2[C@@H]3CC=C4C[C@@H](O)CC[C@]4(C)[C@H]3CC[C@]12C (some centres unmarked) [24-hydroxycholesterol]
repression of iNOS activation (iNOS gene [1]): repress iNOS activation | induction of ABCA1 expression (ABCA1 gene): induce ABCA1 expression

C[C@@H](CO)CCC[C@@H](C)[C@H]1CC[C@H]2[C@@H]3CC=C4C[C@@H](O)CC[C@]4(C)[C@H]3CC[C@]12C [27-hydroxycholesterol]
repression of iNOS activation (iNOS gene [1]): do not repress iNOS activation | induction of ABCA1 expression (ABCA1 gene): activate ABCA1

C[C@H](CCCC(C)(C)O)[C@H]1CC[C@H]2[C@@H]3CC=C4C[C@@H](O)CC[C@]4(C)[C@H]3CC[C@]12C [25 hydroxycholesterol]
repression of iNOS activation (iNOS gene [1]): do not repress iNOS activation | induction of ABCA1 expression (ABCA1 gene): activate ABCA1

CC(/C=C/C(=O)NO)=C\[C@@H](C)C(=O)c1ccc(N(C)C)cc1 [Trichostatin A]
effect on rosiglitazone-dependent transrepression of iNOS (iNOS gene [4]): reversed rosiglitazone-dependent transrepression of iNOS

CN(CCOc1ccc(C[C@H](Nc2ccccc2C(=O)c2ccccc2)C(=O)O)cc1)c1ccccn1 [GW1929]
repression of LPS induced iNOS promoter activity (iNOS promoter [5]): very weak repressor | transactivation activity (PPARγ [6]): strong transactivation activity

CC(C)CC[C@@H](O)[C@@H](C)[C@H]1CC[C@H]2[C@@H]3CC=C4C[C@@H](O)CC[C@]4(C)[C@H]3CC[C@]12C [22R-hydroxycholesterol]
repression of iNOS activation (iNOS gene [1]): repress iNOS activation | induction of ABCA1 expression (ABCA1 gene): induce ABCA1 expression

O=C(O)Cc1cccc(OCCCN(Cc2cccc(C(F)(F)F)c2Cl)CC(c2ccccc2)c2ccccc2)c1 [GW3965]
effect of NCoR-specific siRNA on ligand-dependent repression of LPS-induced iNOS expression (iNOS gene [1]; peritoneal macrophages, GW3965 1 μM, LPS 1 mg/ml 6 h (FIG. 10A)): abolishes | effect of Ubc9-specific siRNA on ligand-dependent repression of LPS-induced iNOS expression (iNOS gene [1]; peritoneal macrophages, GW3965 1 μM, LPS 1 mg/ml 6 h (FIG. 11A)): significantly impairs | effect of NCoR-specific siRNA on ligand-dependent repression of iNOS promoter activation (iNOS promoter [7]; GW3965 1 μM (FIG. 10B)): abolishes | effect of Ubc9-specific siRNA on ligand-dependent repression of iNOS promoter activation (iNOS promoter [7]; GW3965 1 µM (FIG. 11B)): significantly impairs | LXR recruitment on the iNOS promoter (iNOS promoter [8]; GW3965 1 μM, LPS 1 h (FIG. 10C)): ligand-dependent and NCoR-dependent LXR recruitment | LPS-stimulated release of NCoR from the iNOS promoter (iNOS promoter [8]; peritoneal macrophages, GW3965 1 μM (FIG. 10D)): inhibits

COC(=O)c1ccccc1N[C@@H](Cc1ccc(OCCc2nc(-c3ccccc3)oc2C)cc1)C(=O)O [GW7845]
effect on LPS induction of Ccl3, Ccl7, Cxcl10 and Tgtp [9]: repression of the LPS response
